This note sets out measurements from patent US4146624A, “Method of treating viruses with bis-basic ketones of dibenzofuran” (Richardson-Merrell Inc., priority 1970, dated 1979).

Structures can show the parent of a compound that is named as a salt.

For this assay, the system named is Encephalomyocarditis. In words: in vivo antiviral study, mice challenged subcutaneously with encephalomyocarditis virus. Particulars: observation 9 days. Here is the method: Examples 25 to 36 illustrate in vivo antiviral studies with compounds, also referred to as active ingredients, of this invention. In each of the examples the compounds were antivirally active. […] The dosage levels of the compounds used in the examples were within the range of 10 to 250 mg. per kg. of animal body weight for each time the compound was administered.
Table A lists the active ingredient which was administered in each of the examples. Although it is believed that the headings in the examples are self-explanatory, some of the headings are explained as follows. The "challenge," that is, the inoculation with a virus used is generally fatal to all the untreated, that is, control animals in the experiment. "Time of death" refers to the average time of death for the untreated animals. The "Treatment" was prophylactic or therapeutic or both. The term "volume" refers to the volume of composition administered per dose which contained the active ingredient dissolved in sterile water which also contained 0.15% of hydroxyethylcellulose.

Where [1] appears, read: prophylactic, 250 mg/kg oral, 22 hrs. pre-challenge, challenge 6 LD50.
The mark [2] stands for this setting: Proph. & Therap., 50 mg/kg subcutaneous, 28,22,2 hrs. pre- and 2 hrs. post-challenge, challenge 10 LD50.

For `O=C(CCCN1CCCCC1)c1ccc2oc3ccc(C(=O)CCCN4CCCCC4)cc3c2c1` [Example 25, 2,8-bis-(4-piperidinobutyryl)dibenzofuran], the antiviral activity entry reads like this: (prophylactic, 50 mg/kg subcutaneous, 28,22,2 hrs. pre-challenge, challenge 6 LD50) “Yes”; under setting [1], “Yes”.

`CC1CCN(CCCC(=O)c2ccc3oc4ccc(C(=O)CCCN5CCC(C)CC5)cc4c3c2)CC1` [Example 27, 2,8-bis-[4-(4-methylpiperidino)butyryl]dibenzofuran]: the antiviral activity result was “Yes” (Proph. & Therap., 10 mg/kg subcutaneous, 28,22,2 hrs. pre- and 2 hrs. post-challenge, challenge 6 LD50); “Yes” under setting [1].

With `O=C(CCCN1CCC(Cc2ccccc2)CC1)c1ccc2oc3ccc(C(=O)CCCN4CCC(Cc5ccccc5)CC4)cc3c2c1` [Example 29, 2,8-bis-[4-(4-benzylpiperidino)butyryl]dibenzofuran], where the note is “Proph. & Therap., 10 mg/kg subcutaneous, 28,22,2 hrs. pre- and 2 hrs. post-challenge, challenge 18 LD50”, the antiviral activity entry is recorded as “Yes”. Regarding `O=C(CCCN1CCOCC1)c1ccc2oc3ccc(C(=O)CCCN4CCOCC4)cc3c2c1` [Example 30, 2,8-bis-(4-morpholinobutyryl)dibenzofuran], under setting [2], the antiviral activity entry is recorded as “Yes”. In the case of `O=C(CN1CCCCC1)c1ccc2oc3ccc(C(=O)CN4CCCCC4)cc3c2c1` [Example 31, 2,8-bis-(piperidinoacetyl)dibenzofuran], the antiviral activity entry runs as follows: (Proph. & Therap., 250 mg/kg subcutaneous, 28,22,2 hrs. pre- and 2 hrs. post-challenge, challenge 32 LD50) “Yes”; (prophylactic, 250 mg/kg oral, 22 hrs. pre-challenge, challenge 32 LD50) “Yes”. With `CCN(CC)CC(=O)c1ccc2oc3ccc(C(=O)CN(CC)CC)cc3c2c1` [Example 33, 2,8-bis-[2-(diethylamino)acetyl]dibenzofuran dihydrochloride hemihydrate], the antiviral activity entry runs as follows: (Proph. & Therap., 50 mg/kg subcutaneous, 28,22,2 hrs. pre- and 2 hrs. post-challenge, challenge 12 LD50) “Yes”; (prophylactic, 250 mg/kg oral, 22 hrs. pre-challenge, challenge 12 LD50) “Yes”. For `CN(C)CC(=O)c1ccc2oc3ccc(C(=O)CN(C)C)cc3c2c1.Cl.Cl.O.O` [Example 35, 2,8-bis-[2-(dimethylamino)acetyl]dibenzofuran dihydrochloride dihydrate], the antiviral activity result was “Yes” (Proph. & Therap., 50 mg/kg oral, 28,22,2 hrs. pre- and 2 hrs. post-challenge, challenge 10 LD50); “Yes” under setting [2].
